PubChem BioAssay (NCI)
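Test compounds were applied to cells in 96-well plates for 48 hours at 5 doses. Definition used: TGI = concentration required for complete inhibition of growth.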

Tests used:
Test in all cases: NCI tumour cell line growth inhibition, 48 h
RPMI-8226 leukemia = tested on: RPMI-8226 leukemia
SW-620 colon = tested on: SW-620 colon
NCI-H23 lung = tested on: NCI-H23 lung
UACC-257 melanoma = tested on: UACC-257 melanoma
HCC-2998 colon = tested on: HCC-2998 colon
HL-60(TB) leukemia = tested on: HL-60(TB) leukemia
HT29 colon = tested on: HT29 colon
OVCAR-5 ovarian = tested on: OVCAR-5 ovarian
SK-MEL-2 melanoma = tested on: SK-MEL-2 melanoma
SR leukemia = tested on: SR leukemia
786-0 renal = tested on: 786-0 renal
CAKI-1 renal = tested on: CAKI-1 renal
MALME-3M melanoma = tested on: MALME-3M melanoma
SF-268 CNS = tested on: SF-268 CNS
ACHN renal = tested on: ACHN renal
SK-MEL-28 melanoma = tested on: SK-MEL-28 melanoma
TK-10 renal = tested on: TK-10 renal
SNB-19 CNS = tested on: SNB-19 CNS
COLO 205 colon = tested on: COLO 205 colon
HCT-116 colon = tested on: HCT-116 colon
A549 NSCLC = tested on: A549 NSCLC
DMS 114 small cell lung = tested on: DMS 114 small cell lung
NCI-H522 lung = tested on: NCI-H522 lung
KM12 colon = tested on: KM12 colon
LOX IMVI melanoma = tested on: LOX IMVI melanoma
HCT-15 colon = tested on: HCT-15 colon
DLD-1 colon = tested on: DLD-1 colon
SNB-78 CNS = tested on: SNB-78 CNS
XF 498 CNS = tested on: XF 498 CNS
OVCAR-4 ovarian = tested on: OVCAR-4 ovarian
OVCAR-8 ovarian = tested on: OVCAR-8 ovarian
DMS 273 small cell lung = tested on: DMS 273 small cell lung
SN12C renal = tested on: SN12C renal
HOP-18 NSCLC = tested on: HOP-18 NSCLC
M19-MEL melanoma = tested on: M19-MEL melanoma
MOLT-4 leukemia = tested on: MOLT-4 leukemia
UO-31 renal = tested on: UO-31 renal
CCRF-CEM leukemia = tested on: CCRF-CEM leukemia
EKVX NSCLC = tested on: EKVX NSCLC
K-562 leukemia = tested on: K-562 leukemia
NCI-H460 lung = tested on: NCI-H460 lung
SK-MEL-5 melanoma = tested on: SK-MEL-5 melanoma
NCI-H226 lung = tested on: NCI-H226 lung
SF-295 CNS = tested on: SF-295 CNS
M14 melanoma = tested on: M14 melanoma
OVCAR-3 ovarian = tested on: OVCAR-3 ovarian
SNB-75 CNS = tested on: SNB-75 CNS
SF-539 CNS = tested on: SF-539 CNS
KM20L2 colon = tested on: KM20L2 colon
SK-OV-3 ovarian = tested on: SK-OV-3 ovarian
A498 renal = tested on: A498 renal
U251 CNS = tested on: U251 CNS
HOP-92 NSCLC = tested on: HOP-92 NSCLC
UACC-62 melanoma = tested on: UACC-62 melanoma
HOP-62 NSCLC = tested on: HOP-62 NSCLC
IGROV1 ovarian = tested on: IGROV1 ovarian
LXFL 529 NSCLC = tested on: LXFL 529 NSCLC

Measured: TGI

COc1ccc(CNc2cnc3ccc(N)cc3n2)cc1OC
not listed: KM20L2 colon | SK-OV-3 ovarian | A498 renal | U251 CNS | HOP-92 NSCLC | UACC-62 melanoma | HOP-62 NSCLC | IGROV1 ovarian | LXFL 529 NSCLC
> 100 µM: all other assays above

Cc1ccccc1Cn1nc2ccccc2cc1=O
not listed: HL-60(TB) leukemia | SR leukemia | NCI-H522 lung | MOLT-4 leukemia | LXFL 529 NSCLC
> 100 µM: all other assays above

CC(=O)Nc1ccc(C(=O)NN2C(=O)C(Cl)C2c2cc(Br)cc(Br)c2O)cc1 (configuration not stated)
not listed: HT29 colon | SK-MEL-28 melanoma | TK-10 renal | SNB-78 CNS | SF-295 CNS
> 100 µM: all other assays above
